Test results published in patent US5359076A, “Cyclic aminophenylacetic acid derivatives, process for preparing the same and immune response modulator having the same as an effective ingredient” (Kyorin Pharmaceutical Co., Ltd., priority 1991, dated 1994).
Structures can show the parent of a compound that is named as a salt.

Legend:
vascular permeability = assay: Inhibitory effect on vascular permeability (acetic acid, Evans Blue, mice); assay type: in vivo, male ddY-strain mice; conditions: 100 mg/kg, p.o.
Procedure: Male ddY-strain mice were orally administered with the compound of examples in 5% arabic gum suspension. After 45 minutes, 1% Evans Blue dissolved in saline (0.1 ml/10 g body weight) was injected into tail vein, and immediately, 1% of acetic acid diluted in saline (0.1 ml/10 g body weight) was injected into peritoneal cavity. Thirty minutes later, each mouse was sacrificed and peritoneal cavity was washed with saline (2 ml/10 g body weight). Peritoneal exuded fluid was collected and centrifuged at 3,000 rpm for 10 minutes. The optical density of supernatant was read at 630 nm. The volume of Evans Blue was determined from the calibration curve and the inhibition ratio was calculated.

adjuvant arthritis = assay: Therapeutic effect on the adjuvant arthritis in rats (swelling of non-injected hind paw); assay type: in vivo, female SD-strain rats; conditions: oral
Procedure: Heat-killed Mycobacterium butyricum (0.6 mg/rat) suspended in liquid paraffin was injected intradermally into right hind paw of female SD-strain rats. Test compounds suspended in 0.3% CMC solution were administered orally once a day for 7 days from 14 days to 20 days after the injection of adjuvant. The swelling of non-injected hind paw was measured by the water displacement method.

[1] = system: IgM antibody-producing cells; assay: Effect on IgM antibody-producing cells in vivo (Jerne method); parameters: species or system BALB/c-strain mice; conditions: 12.5 mg/kg/day, oral 4 days, n 7
Procedure: To a BALB/c-strain mice were intraperitoneally injected with 5×10^8 /0.1 ml of sheep erythrocytes. The test compound was administered orally once a day for 4 days since the erythrocyte injection. On the next day of final administration, the spleen cells were isolated by finely mincing the spleen, centrifuged and suspended in medium (RPMI-1640+10% FCS). The number of IgM antibody-producing cells was counted by Jerne method.

[2] = system: IgM antibody-producing cells; assay: Effect on IgM antibody-producing cells in vitro (Jerne method); assay type: cell-based, BDF1-strain mice; conditions: n 6; for IgM-PFC/culture (mean ± S.E.): reference 82 ± 15, *p < 0.01 (Dunnett's test)
Procedure: The spleen cells of BDF1 -strain mice were isolated by finely mincing the spleen, centrifuged, and suspended in medium (RPMI-1640+10% FCS). Each 50 μl of spleen cell suspension (2×10^7 cells/ml) and sheep erythrocyte suspension (1×10^7 cells/ml) was spread on a 96-well plate. Test compounds were dissolved in DMSO and diluted in medium. Then, 100 μl of medium containing test compounds were added to the 96-well plate. After the plate was incubated at 37° C. for 5 days in 5% CO2 incubator, the number of IgM antibody-producing cells was counted by Jerne method.

[3] = 25 mg/kg/day, 18 Days after adjuvant
[4] = 25 mg/kg/day, 21 Days after adjuvant
[5] = 25 mg/kg/day, 27 Days after adjuvant
[6] = 50 mg/kg/day, 18 Days after adjuvant
[7] = 50 mg/kg/day, 21 Days after adjuvant
[8] = 50 mg/kg/day, 27 Days after adjuvant

Structure (SMILES): O=C(O)Cc1cc(Cl)c2c(c1)CCC(c1ccccc1F)N2 (stereo not drawn) [Example 7, 8-Chloro-2-(2-fluorophenyl)-1,2,3,4-tetrahydroquinoline-6-acetic acid]
- Inhibition ratio (vascular permeability) (vascular permeability): 51.1%
- Inhibition ratio of swelling (adjuvant arthritis; [3]): 6%
- Inhibition ratio of swelling (adjuvant arthritis; [4]): 19%
- Inhibition ratio of swelling (adjuvant arthritis; [5]): 33%
- Inhibition ratio of swelling (adjuvant arthritis; [6]): 36%
- Inhibition ratio of swelling (adjuvant arthritis; [7]): 52%
- Inhibition ratio of swelling (adjuvant arthritis; [8]): 50%
- Inhibition ratio of swelling (adjuvant arthritis; 100 mg/kg/day, 18 Days after adjuvant): 59%
- Inhibition ratio of swelling (adjuvant arthritis; 100 mg/kg/day, 21 Days after adjuvant): 64%
- Inhibition ratio of swelling (adjuvant arthritis; 100 mg/kg/day, 27 Days after adjuvant): 64%

Structure (SMILES): O=C(O)Cc1cc(Cl)c2c(c1)CCC(C(F)(F)F)N2 (stereo not drawn) [Example 15, 8-Chloro-1,2,3,4-tetrahydro-2-trifluoromethylquinoline-6-acetic acid]
- Inhibition ratio (IgM-PFC in vivo) [1]: 35%
- IgM-PFC/spleen (× 10^2) (mean ± S.E.) ([1]; reference 995 ± 55, *p < 0.05 (Dunnett's test)): 651 ± 49 IgM-PFC/spleen (× 10^2)
- Inhibition ratio (vascular permeability) (vascular permeability): 29.1%
- Inhibition ratio of swelling (adjuvant arthritis; 12.5 mg/kg/day, 18 Days after adjuvant): 21%
- Inhibition ratio of swelling (adjuvant arthritis; 12.5 mg/kg/day, 21 Days after adjuvant): 36%
- Inhibition ratio of swelling (adjuvant arthritis; 12.5 mg/kg/day, 27 Days after adjuvant): 50%
- Inhibition ratio of swelling (adjuvant arthritis; [3]): 39%
- Inhibition ratio of swelling (adjuvant arthritis; [4]): 45%
- Inhibition ratio of swelling (adjuvant arthritis; [5]): 52%
- Inhibition ratio of swelling (adjuvant arthritis; [6]): 39%
- Inhibition ratio of swelling (adjuvant arthritis; [7]): 56%
- Inhibition ratio of swelling (adjuvant arthritis; [8]): 58%
- IgM-PFC/culture (mean ± S.E.) ([2]; 2 × 10^-6 M): 24 ± 3 IgM-PFC/culture
- IgM-PFC/culture (mean ± S.E.) ([2]; 5 × 10^-5 M): 31 ± 9 IgM-PFC/culture
- inhibition at 2 µM ([2]; Mus musculus, 120 h, 2 × 10^-6 M, read-out: Inhibition ratio (IgM-PFC in vitro)): 71%
- inhibition at 50 µM ([2]; Mus musculus, 120 h, 5 × 10^-5 M, read-out: Inhibition ratio (IgM-PFC in vitro)): 62%

Structure (SMILES): CN1c2ccc(CC(=O)O)cc2CCC1c1ccccc1 (stereo not drawn) [Example 11, 1-Methyl-2-phenyl-1,2,3,4-tetrahydroquinoline-6-acetic acid]
- Inhibition ratio (vascular permeability) (vascular permeability): 42.7%

Structure (SMILES): CCOC(=O)Cc1cc(Cl)c2c(c1)CCC(c1ccccc1F)N2 (stereo not drawn) [Example 4, Ethyl 8-chloro-2-(2-fluorophenyl)-1,2,3,4-tetrahydroquinoline-6-acetate]
- Inhibition ratio (vascular permeability) (vascular permeability): 33.1%

Structure (SMILES): O=C(O)Cc1cc(Br)c2c(c1)CCC(C(F)(F)F)N2 (stereo not drawn) [Example 23, 8-Bromo-1,2,3,4-tetrahydro-2-trifluoromethylquinoline-6-acetic acid]
- Inhibition ratio (vascular permeability) (vascular permeability): 38.6%

Structure (SMILES): CC(=O)c1cc(CC(=O)O)cc2c1NC(C(F)(F)F)CC2 (stereo not drawn) [Example 28, 8-Acetyl-1,2,3,4-tetrahydro-2-trifluoromethylquinoline-6-acetic acid]
- Inhibition ratio (vascular permeability) (vascular permeability): 16.7%

Structure (SMILES): O=C(O)Cc1cc2c(c([N+](=O)[O-])c1)NC(C(F)(F)F)CC2 (stereo not drawn) [Example 33, 8-Nitro-1,2,3,4-tetrahydro-2-trifluoromethylquinoline-6-acetic acid]
- Inhibition ratio (vascular permeability) (vascular permeability): 25.4%

Structure (SMILES): CSc1cc(CC(=O)O)cc2c1NC(C(F)(F)F)CC2 (stereo not drawn) [Example 29, 8-Methylthio-1,2,3,4-tetrahydro-2-trifluoromethylquinoline-6-acetic acid]
- Inhibition ratio (vascular permeability) (vascular permeability): 18.4%

Structure (SMILES): COc1ccc(C2CCc3cc(CC(=O)O)cc(Cl)c3N2)cc1 (stereo not drawn) [Example 9, 8-Chloro-2-(4-methoxyphenyl)-1,2,3,4-tetrahydroquinoline-6-acetic acid]
- Inhibition ratio (vascular permeability) (vascular permeability): 16.0%

Structure (SMILES): O=C(O)Cc1ccc2c(c1)CCC(C(F)(F)F)N2 (stereo not drawn) [Example 16, 1,2,3,4-Tetrahydro-2-trifluoromethylquinoline-6-acetic acid]
- Inhibition ratio (vascular permeability) (vascular permeability): 37.3%

Structure (SMILES): O=C(O)Cc1cc(Cl)c2c(c1)CCC(c1ccccc1)N2 (stereo not drawn) [Example 8, 8-Chloro-2-phenyl-1,2,3,4-tetrahydroquinoline-6-acetic acid]
- Inhibition ratio (vascular permeability) (vascular permeability): 50.0%

Structure (SMILES): N#Cc1cc(CC(=O)O)cc2c1NC(C(F)(F)F)CC2 (stereo not drawn) [Example 24, 8-Cyano-1,2,3,4-tetrahydro-2-trifluoromethylquinoline-6-acetic acid]
- Inhibition ratio (vascular permeability) (vascular permeability): 25.9%

Structure (SMILES): O=C(O)Cc1cc2c(c(C(=O)c3ccccc3)c1)NC(C(F)(F)F)CC2 (stereo not drawn) [Example 32, Sodium salt of 8-benzoyl-1,2,3,4-tetrahydro-2-trifluoromethylquinoline-6-acetic acid]
- Inhibition ratio (vascular permeability) (vascular permeability): 19.7%

Structure (SMILES): O=C(O)Cc1cc2c(c(-c3ccccc3)c1)NC(C(F)(F)F)CC2 (stereo not drawn) [Example 27, 8-Phenyl-1,2,3,4-tetrahydro-2-trifluoromethylquinoline-6-acetic acid]
- Inhibition ratio (vascular permeability) (vascular permeability): 27.0%

Structure (SMILES): CN1c2c(Cl)cc(CC(=O)O)cc2CCC1c1ccccc1 (stereo not drawn) [Example 12, 8-Chloro-1-methyl-2-phenyl-1,2,3,4-tetrahydroquinoline-6-acetic acid]
- Inhibition ratio (vascular permeability) (vascular permeability): 52.7%
